US8969516B2, “Method of hydrolysis of peptide bond” (priority 2006, dated 2015)

Experiment: MALDI-TOF screening of Ni^2+ dependent hydrolysis in a combinatorial peptide library
Format: physicochemical
Conditions: CH3CO-Gly-Ala-Thr-X-His-Z-Lys-Phe-Leu-NH2 library, Ni^2+ 2 mM, pH 8.2, 10 mM Tris, score=24/tm
Method in brief: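 Sublibraries of Ac-Gly-Ala-Ser/Thr-X-His-Z-Lys-Phe-Leu-NH2, randomized at Z and fixed at X, were hydrolyzed at 1 mM total peptide with 2 mM Ni2+ in 10 mM Tris, pH 8.2, at 37 °C or 45 °C. Cleavage was scored visually in MALDI-TOF spectra at 2, 4, 6 and 8 h.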

| Substance | hydrolysis score from MALDI-TOF screening (37° C.) | hydrolysis score from MALDI-TOF screening (45° C.) |
| --- | --- | --- |
| Ac-GATRHHKFL-NH2 [TRHH] | 3 (a score of 3 for detection at 8 hours) | 4 (a score of 4 for detection at 6 hours) |
| Ac-GATRHIKFL-NH2 [TRHI] | 6 (a score of 6 for detection at 4 hours) | 12 (a score of 12, if it was seen to be partially hydrolysed at 2 hours) |
| Ac-GATRHKKFL-NH2 [TRHK] | 6 (a score of 6 for detection at 4 hours) | 12 (a score of 12, if it was seen to be partially hydrolysed at 2 hours) |
| Ac-GATRHLKFL-NH2 [TRHL] | 6 (a score of 6 for detection at 4 hours) | 12 (a score of 12, if it was seen to be partially hydrolysed at 2 hours) |
| Ac-GATRHMKFL-NH2 [TRHM] | 3 (a score of 3 for detection at 8 hours) | 4 (a score of 4 for detection at 6 hours) |
| Ac-GATRHNKFL-NH2 [TRHN] | 0 (a score of 0 if no trace of the product of hydrolysis was seen after 8 hours of incubation) | 0 (a score of 0 if no trace of the product of hydrolysis was seen after 8 hours of incubation) |
| Ac-GATRHPKFL-NH2 [TRHP] | 0 (a score of 0 if no trace of the product of hydrolysis was seen after 8 hours of incubation) | 0 (a score of 0 if no trace of the product of hydrolysis was seen after 8 hours of incubation) |
| Ac-GATRHQKFL-NH2 [TRHQ] | 0 (a score of 0 if no trace of the product of hydrolysis was seen after 8 hours of incubation) | 0 (a score of 0 if no trace of the product of hydrolysis was seen after 8 hours of incubation) |
| Ac-GATRHRKFL-NH2 [TRHR] | 4 (a score of 4 for detection at 6 hours) | 6 (a score of 6 for detection at 4 hours) |
| Ac-GATRHSKFL-NH2 [TRHS] | 0 (a score of 0 if no trace of the product of hydrolysis was seen after 8 hours of incubation) | 0 (a score of 0 if no trace of the product of hydrolysis was seen after 8 hours of incubation) |
| Ac-GATRHTKFL-NH2 [TRHT] | 0 (a score of 0 if no trace of the product of hydrolysis was seen after 8 hours of incubation) | 0 (a score of 0 if no trace of the product of hydrolysis was seen after 8 hours of incubation) |
| Ac-GATRHVKFL-NH2 [TRHV] | 3 (a score of 3 for detection at 8 hours) | 4 (a score of 4 for detection at 6 hours) |
| Ac-GATRHWKFL-NH2 [TRHW] | 12 (a score of 12, if it was seen to be partially hydrolysed at 2 hours) | 12 (a score of 12, if it was seen to be partially hydrolysed at 2 hours) |
| Ac-GATRHYKFL-NH2 [TRHY] | 4 (a score of 4 for detection at 6 hours) | 6 (a score of 6 for detection at 4 hours) |
| Ac-GATSHAKFL-NH2 [TSHA] | 0 (a score of 0 if no trace of the product of hydrolysis was seen after 8 hours of incubation) | 0 (a score of 0 if no trace of the product of hydrolysis was seen after 8 hours of incubation) |
| Ac-GATSHDKFL-NH2 [TSHD] | 0 (a score of 0 if no trace of the product of hydrolysis was seen after 8 hours of incubation) | 0 (a score of 0 if no trace of the product of hydrolysis was seen after 8 hours of incubation) |
| Ac-GATSHEKFL-NH2 [TSHE] | 0 (a score of 0 if no trace of the product of hydrolysis was seen after 8 hours of incubation) | 0 (a score of 0 if no trace of the product of hydrolysis was seen after 8 hours of incubation) |
| Ac-GATSHFKFL-NH2 [TSHF] | 0 (a score of 0 if no trace of the product of hydrolysis was seen after 8 hours of incubation) | 0 (a score of 0 if no trace of the product of hydrolysis was seen after 8 hours of incubation) |
| Ac-GATSHGKFL-NH2 [TSHG] | 0 (a score of 0 if no trace of the product of hydrolysis was seen after 8 hours of incubation) | 0 (a score of 0 if no trace of the product of hydrolysis was seen after 8 hours of incubation) |

| Substance | hydrolysis score from MALDI-TOF screening (37° C.) | hydrolysis score from MALDI-TOF screening (45° C.) |
| --- | --- | --- |
| Ac-GATSHHKFL-NH2 [TSHH] | 0 (a score of 0 if no trace of the product of hydrolysis was seen after 8 hours of incubation) | 0 (a score of 0 if no trace of the product of hydrolysis was seen after 8 hours of incubation) |
| Ac-GATSHIKFL-NH2 [TSHI] | 0 (a score of 0 if no trace of the product of hydrolysis was seen after 8 hours of incubation) | 0 (a score of 0 if no trace of the product of hydrolysis was seen after 8 hours of incubation) |
| Ac-GATSHKKFL-NH2 [TSHK] | 0 (a score of 0 if no trace of the product of hydrolysis was seen after 8 hours of incubation) | 0 (a score of 0 if no trace of the product of hydrolysis was seen after 8 hours of incubation) |
| Ac-GATSHLKFL-NH2 [TSHL] | 0 (a score of 0 if no trace of the product of hydrolysis was seen after 8 hours of incubation) | 0 (a score of 0 if no trace of the product of hydrolysis was seen after 8 hours of incubation) |
| Ac-GATSHMKFL-NH2 [TSHM] | 0 (a score of 0 if no trace of the product of hydrolysis was seen after 8 hours of incubation) | 0 (a score of 0 if no trace of the product of hydrolysis was seen after 8 hours of incubation) |
| Ac-GATSHNKFL-NH2 [TSHN] | 0 (a score of 0 if no trace of the product of hydrolysis was seen after 8 hours of incubation) | 0 (a score of 0 if no trace of the product of hydrolysis was seen after 8 hours of incubation) |
| Ac-GATSHPKFL-NH2 [TSHP] | 0 (a score of 0 if no trace of the product of hydrolysis was seen after 8 hours of incubation) | 0 (a score of 0 if no trace of the product of hydrolysis was seen after 8 hours of incubation) |
| Ac-GATSHQKFL-NH2 [TSHQ] | 0 (a score of 0 if no trace of the product of hydrolysis was seen after 8 hours of incubation) | 0 (a score of 0 if no trace of the product of hydrolysis was seen after 8 hours of incubation) |
| Ac-GATSHRKFL-NH2 [TSHR] | 0 (a score of 0 if no trace of the product of hydrolysis was seen after 8 hours of incubation) | 0 (a score of 0 if no trace of the product of hydrolysis was seen after 8 hours of incubation) |
| Ac-GATSHSKFL-NH2 [TSHS] | 0 (a score of 0 if no trace of the product of hydrolysis was seen after 8 hours of incubation) | 0 (a score of 0 if no trace of the product of hydrolysis was seen after 8 hours of incubation) |
| Ac-GATSHTKFL-NH2 [TSHT] | 0 (a score of 0 if no trace of the product of hydrolysis was seen after 8 hours of incubation) | 0 (a score of 0 if no trace of the product of hydrolysis was seen after 8 hours of incubation) |
| Ac-GATSHVKFL-NH2 [TSHV] | 0 (a score of 0 if no trace of the product of hydrolysis was seen after 8 hours of incubation) | 0 (a score of 0 if no trace of the product of hydrolysis was seen after 8 hours of incubation) |
| Ac-GATSHWKFL-NH2 [TSHW] | 0 (a score of 0 if no trace of the product of hydrolysis was seen after 8 hours of incubation) | 0 (a score of 0 if no trace of the product of hydrolysis was seen after 8 hours of incubation) |
| Ac-GATSHYKFL-NH2 [TSHY] | 0 (a score of 0 if no trace of the product of hydrolysis was seen after 8 hours of incubation) | 0 (a score of 0 if no trace of the product of hydrolysis was seen after 8 hours of incubation) |
| Ac-GATTHAKFL-NH2 [TTHA] | 0 (a score of 0 if no trace of the product of hydrolysis was seen after 8 hours of incubation) | 0 (a score of 0 if no trace of the product of hydrolysis was seen after 8 hours of incubation) |
| Ac-GATTHDKFL-NH2 [TTHD] | 0 (a score of 0 if no trace of the product of hydrolysis was seen after 8 hours of incubation) | 0 (a score of 0 if no trace of the product of hydrolysis was seen after 8 hours of incubation) |
| Ac-GATTHEKFL-NH2 [TTHE] | 0 (a score of 0 if no trace of the product of hydrolysis was seen after 8 hours of incubation) | 0 (a score of 0 if no trace of the product of hydrolysis was seen after 8 hours of incubation) |
| Ac-GATTHFKFL-NH2 [TTHF] | 0 (a score of 0 if no trace of the product of hydrolysis was seen after 8 hours of incubation) | 0 (a score of 0 if no trace of the product of hydrolysis was seen after 8 hours of incubation) |
| Ac-GATTHGKFL-NH2 [TTHG] | 0 (a score of 0 if no trace of the product of hydrolysis was seen after 8 hours of incubation) | 0 (a score of 0 if no trace of the product of hydrolysis was seen after 8 hours of incubation) |
